Assay results published in patent US20130310256A1, “HERBICIDAL COMPOSITIONS COMPRISING 4-AMINO-3-CHLORO-5-FLUORO-6-(4-CHLORO-2-FLUORO-3-METHOXYPHENYL) PYRIDINE-2-CARBOXYLIC ACID OR A DERIVATIVE THEREOF AND VLCFA AND LIPID SYNTHESIS INHIBITING HERBICIDES” (DOW AGROSCIENCES LLC, priority 2008, published 2013).
Several values for one entry are separate records, joined by “and”; a condition that tells them apart may be missing. Equal entries are not always repeated.

Assays:
[1] = test system: ECHCG; assay: Example I: postemergence foliar-applied weed control, greenhouse; type: in vivo, Echinochloa crus-galli (L.) Beauv. (barnyardgrass); settings: for Visual Weed Control (%) - 22 DAA ECHCG Obs / Visual Weed Control (%) - 20 DAA ECHCG Obs: foliar
Outline: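 Plants grown in loam/sandy loam–calcareous grit soil (80:20) in greenhouse, 14 hr photoperiod, about 29° C. day/26° C. night, treated postemergence at first to fourth true leaf stage. Foliar spray at 187 L/ha with 1.25% (v/v) crop oil concentrate; Compound A dosed on acid equivalent basis, partners on active ingredient basis.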

[2] = test system: SCPJU; assay: Example V: field trial, in-water application to transplanted rice, Niigata, Japan; type: in vivo, Scirpus juncoides; settings: 31 DAA, submerged weeds
Procedure: Post and pre-emergence field trials were conducted in Niigata, Japan. Trial sites were located in commercially grown fields of transplanted rice (Oryza sativa, variety: Koshihikari) using standard herbicide small plot research methodology. The trial plot size was 2 meters (m)×2 m with 3 replications. The nursery plants were grown in the greenhouse using practical methods and transplanted into the field at the 2.5-leaf stage on May 7, 2012. The row and in-row spaces were 30 cm and 17 cm, respectively. The crop was grown using normal cultural practices for fertilization, water management and maintenance to ensure good growth of the crop and the weeds.
Treatments consisted of the benzyl ester of 4-amino-3-chloro-5-fluoro-6-(4-chloro-2-fluoro-3-methoxyphenyl)pyridine-2-carboxylic acid (Compound A) formulated as an SC (suspension concentrate) and various herbicidal components alone and in combination. Compound A benzyl ester was applied on an active ingredient basis. […]
Compound A benzyl ester SC was once diluted in 100 mL water in the 200 mL bottle/plot to achieve the desired rates and applied by water injection. […] Visual weed control was scored on a scale of 0 to 100 percent where 0 corresponds to no injury and 100 corresponds to complete kill. […]

[3] = test system: SCPJU; assay: Example I: postemergence foliar-applied weed control, greenhouse; type: in vivo, Schoenoplectus juncoides (Roxb.) Palla (Japanese bulrush)

CCS(=O)(=O)Oc1ccc2c(c1)C(C)(C)CO2 [Benfuresate, 2,3-dihydro-3,3-dimethyl-5-benzofuranyl ethanesulfonate]
Visual Weed Control (%) - 22 DAA ECHCG Obs ([1]; 75 gai/ha): 0% | Visual Weed Control (%) - 22 DAA ECHCG Obs ([1]; 150 gai/ha): 0% | Visual Weed Control (%) - 22 DAA ECHCG Obs ([1]; 300 gai/ha): 0% | Visual Weed Control SCPJU Obs ([2]; 600 gai/ha): 64.3%

CCN(CC)C(=O)n1cnc(S(=O)(=O)c2c(C)cc(C)cc2C)n1 [Cafenstrole, N,N-diethyl-3-[(2,4,6-trimethylphenyl)sulfonyl]-1H-1,2,4-triazole-1-carboxamide]
Visual Weed Control Obs ([1]; 20 DAA, 26.25 gai/ha Himeadow WP): 10% | Visual Weed Control Obs ([1]; 20 DAA, 52.5 gai/ha Himeadow WP): 15% | Visual Weed Control Obs ([1]; 20 DAA, 105 gai/ha Himeadow WP): 15% | Visual Weed Control Obs ([1]; 21 DAA, 210 gai/ha Lapost Flowable): 0% | Visual Weed Control (%) - 21 DAA SCPJU Obs ([3]; 26.25 gai/ha): 0% | Visual Weed Control (%) - 21 DAA SCPJU Obs ([3]; 52.5 gai/ha): 0% | Visual Weed Control (%) - 21 DAA SCPJU Obs ([3]; 105 gai/ha): 0%

COc1c(Cl)ccc(-c2nc(C(=O)O)c(Cl)c(N)c2F)c1F [Compound A Acid, 4-amino-3-chloro-6-(4-chloro-2-fluoro-3-methoxyphenyl)-5-fluoropyridine-2-carboxylic acid]
Visual Weed Control (%) - 22 DAA ECHCG Obs ([1]; 5.3 gae/ha): 65% | Visual Weed Control (%) - 22 DAA ECHCG Obs ([1]; 10.6 gae/ha): 55% | Visual Weed Control Obs ([1]; 20 DAA, 4.38 gae/ha): 60% and 50% | Visual Weed Control Obs ([1]; 21 DAA, 17.5 gae/ha): 88% | Visual Weed Control Obs ([1]; 21 DAA, 35 gae/ha): 85%

COc1c(Cl)ccc(-c2nc(C(=O)OCc3ccccc3)c(Cl)c(N)c2F)c1F [Compound A Benzyl Ester, benzyl ester of 4-amino-3-chloro-5-fluoro-6-(4-chloro-2-fluoro-3-methoxy-phenyl)pyridine-2-carboxylic acid]
Visual Weed Control (%) - 22 DAA ECHCG Obs ([1]; 5.3 gae/ha): 40% | Visual Weed Control (%) - 20 DAA ECHCG Obs ([1]; 8 gae/ha): 63% | Visual Weed Control (%) - 22 DAA ECHCG Obs ([1]; 8 gae/ha): 25% | Visual Weed Control (%) - 22 DAA ECHCG Obs ([1]; 10.6 gae/ha): 60% | Visual Weed Control (%) - 20 DAA ECHCG Obs ([1]; 16 gae/ha): 78% | Visual Weed Control (%) - 22 DAA ECHCG Obs ([1]; 16 gae/ha): 50% | Visual Weed Control Obs ([1]; 20 DAA, 4.38 gae/ha): 70% | Visual Weed Control Obs ([1]; 20 DAA, 8.75 gae/ha): 70% | Visual Weed Control Obs ([1]; 20 DAA, 16 gae/ha): 78% | Visual Weed Control Obs ([1]; 20 DAA, 32 gae/ha): 83% | Visual Weed Control (%) - 20 DAA ECHCG Obs ([1]; 32 gae/ha): 83% | Visual Weed Control (%) - 22 DAA ECHCG Obs ([1]; 32 gae/ha): 85% | Visual Weed Control SCPJU Obs ([2]; 100 gai/ha): 87.7% | Visual Weed Control (%) - 21 DAA SCPJU Obs ([3]; 4.38 gae/ha): 40%

CCCOCCN(C(=O)CCl)c1c(CC)cccc1CC [Pretilachlor, 2-chloro-N-(2,6-diethylphenyl)-N-(2-propoxyethyl)acetamide]
Visual Weed Control Obs ([1]; 20 DAA, 37.5 gai/ha): 10% | Visual Weed Control Obs ([1]; 20 DAA, 75 gai/ha): 10% | Visual Weed Control Obs ([1]; 20 DAA, 150 gai/ha): 0%
